Measurements reported in patent publication US20200197533A1, “COMBINATION CANCER THERAPY USING CHIMERIC ANTIGEN RECEPTOR ENGINEERED NATURAL KILLER CELLS AS CHEMOTHERAPEUTIC DRUG CARRIERS” (priority 2017, published 2020).
Entries after “also recorded” stand apart in the source; their conditions may differ.

What was measured:
[1] = test system: NK92 cells; experiment: Cell viability (XTT) assay with cMLV(PTX); format: cell-based, human; details: various concentrations of cMLV(PTX)
Experimental: (§1) NK92 and SKOV3 cells were seeded in 96-well plates at 2×10^4 cells per well in 10% FBS-containing media and grown at 37° C. in the presence of 5% CO2 for 6 hours. Cells were incubated with various concentrations of cMLV (PTX) as previously described (Liu, Y, et al (2014). Codelivery of doxorubicin and paclitaxel by cross-linked multilamellar liposome enables synergistic antitumor activity. Mol Pharm 11: 1651-1661) and cell viability was assessed using the Cell Proliferation Kit II (XTT assay) from Roche Applied Science (Indianapolis, Ind.) according to the manufacturer's instructions. Cell viability percentage was determined by subtracting absorbance values obtained from media-only wells from the treated wells and then normalized by the control wells containing cells without drugs.

[2] = test system: SKOV3 cells; experiment: Cell viability (XTT) assay with cMLV(PTX); format: cell-based; details: various concentrations of cMLV(PTX), compared with NK cells
Experimental: as §1

[3] = test system: lymphoma cells; details: drug-loaded nanocapsules conjugated to murine T cells; cited from earlier work
[4] = test system: T cell carriers; details: drug-loaded nanocapsules conjugated to murine T cells; cited from earlier work

SMILES	cell viability of NK92 carrier cells exposed to PTX [1]	cell viability of SKOV3 tumor cells exposed to PTX [2]	killing of lymphoma cells [3]	toxicity to the T cell carriers [4]
CC(=O)O[C@H]1C(=O)[C@@]2(C)[C@H]([C@H](OC(=O)c3ccccc3)[C@]3(O)C[C@H](OC(=O)[C@H](O)[C@@H](NC(=O)c4ccccc4)c4ccccc4)C(C)=C1C3(C)C)[C@]1(OC(C)=O)CO[C@@H]1C[C@@H]2O [PTX, paclitaxel]	not NK92 cells	more sensitive to PTX; also recorded: can kill tumor cells		
CCc1c2c(nc3ccc(O)cc13)-c1cc3c(c(=O)n1C2)COC(=O)[C@]3(O)CC [SN-38]			effectively killed lymphoma cells	not toxic to the T cell carriers
